# Measurements reported in patent publication US20210386695A1 (priority 2020, published 2021).
# Legend:
# Format in all cases: cell-based
# [1] = system: B.1.1.7 variant of SARS-CoV-2 pseudo-particles
# [2] = system: B.1.1.7 variant of SARS-CoV-2 pseudo-particles; test: microbe, parasite or virus in culture; details: Severe acute respiratory syndrome coronavirus 2, Vero C1008
# [3] = system: 501Y-V2 variant of SARS-CoV-2 pseudo-particles; test: microbe, parasite or virus in culture; details: Severe acute respiratory syndrome coronavirus 2, Vero C1008
# [4] = system: B.1.1.7 variant of SARS-CoV-2 pseudo-particles; remark: listed apart in the source
smiles,measurement,setting,value
CCN(CC)C(=S)SSC(=S)N(CC)CC [disulfiram],inhibitory capacity in furin-expressing Vero E6 cells compared with Vero E6 cells,[1],similar
same,EC50,[2],3.18 µM
same,EC50,[3],3.84 µM
same,block of viral pseudo-particles infection,[4],dose-dependent manner
